Assays:
[1] = Antagonist activity at PAR1 in human platelet rich plasma assessed as inhibition of haTRAP-induced platelet aggregation preincubated for 1 hr followed by haTRAP addition measured for 10 mins by spectrophotometric analysis
[2] = Antagonist activity at PAR1 in washed human platelets assessed as inhibition of haTRAP-induced platelet aggregation preincubated for 1 hr followed by haTRAP addition measured for 10 mins by spectrophotometric analysis

Row | Structure (SMILES) | IC50 [1] [nM] | IC50 [2] [nM]
1 | CC(=O)N(C)C1C[C@@H]2CCCC[C@@H]2[C@H]1/C=C/c1ccc(-c2cccc(F)c2)cn1 (stereo not given in full) | 8900 | 210
2 | CN(C1C[C@@H]2CCCC[C@@H]2[C@H]1/C=C/c1ccc(-c2cccc(F)c2)cn1)S(C)(=O)=O (stereo not given in full) | 97 | 2.2
3 | CS(=O)(=O)OC1C[C@@H]2CCCC[C@@H]2[C@H]1/C=C/c1ccc(-c2cccc(F)c2)cn1 (stereo not given in full) |  | 6
4 | CCOC(=O)N[C@@H]1CC[C@@H]2[C@@H](C1)C[C@H]1C(=O)O[C@H](C)[C@H]1[C@H]2C=Cc1ccc(-c2cccc(F)c2)cn1 [Ethyl [(3aR,4aR,8aR,9aS)-9(S)-[(E)-2-[5-(3-fluorophenyl)-2-pyridinyl]ethenyl]dodecahydro-1(R)-methyl-3-oxonaphtho[2,3-c]furan-6(R)-yl]carbamate] | 120 | 1.5

The next lines start with the values.

Row | IC50 [1] [nM] | IC50 [2] [nM] | Structure (SMILES)
5 | 100 | 2.9 | CC1(OC(N)=O)C[C@@H]2CCCC[C@@H]2[C@H]1C=Cc1ccc(-c2cccc(F)c2)cn1 (stereo not given in full)
6 | 3900 | 140 | CS(=O)(=O)NC1C[C@@H]2CCCC[C@@H]2[C@H]1/C=C/c1ccc(-c2cccc(F)c2)cn1 (stereo not given in full)
7 | 210 | 7.2 | O=C1NCC2(C[C@@H]3CCCC[C@@H]3[C@H]2C=Cc2ccc(-c3cccc(F)c3)cn2)O1 (stereo not given in full)
8 | 4100 | 410 | Fc1cccc(-c2ccc(/C=C/[C@@H]3[C@H]4CCCC[C@H]4CC34OCCO4)nc2)c1

Reference: BindingDB's records for doi:10.1021/ml400235c (Korea Research Institute of Technology, 2013)
